Data published in patent US20250281457A1, “TREATMENT OR PREVENTION OF DENGUE VIRAL INFECTION” (Janssen Pharmaceuticals, Inc., priority 2022, published 2025).
Read-outs that look alike come from different tables or passages of the source.

Assay: Plasma pharmacokinetics with loading dose and weekly or twice weekly maintenance dosing, fed (Example 5)
Assay type: in vivo, human
Conditions: human, plasma, oral; for Cmax: read-out: Mean Cmax (SD); for AUC: read-out: Mean AUCτ (SD); for AUC(0-inf): read-out: Mean AUC∞ (SD); for concentration at 72 h: read-out: Mean C72 h (SD)
Procedure: A pharmaceutical formulation comprising Compound (a) as described in Example 2 (SF2a/b) was administered as an oral dosage form, to healthy adult participants, in a fed state. Four dose regimens were applied: • Panel I (weekly dosing): 450 mg of Compound (a) twice a day (BID) for two days: on day 1 (D1) and on day 2 (D2) (loading dose); and then 900 mg once a week (Q7D), on day 3 (D3), day 10 (D10), day 17 (D17), and on day 24 (D24) (maintenance dose). • Panel II (biweekly dosing): 450 mg of Compound (a) twice a day (BID) for two days: on day 1 (D1) and on day 2 (D2); (loading dose) and then 450 mg once every 3 (Q3D) or 4 days (Q4D): on day 3 (D3), on day 6 (D6), on day 10 (D10), on day 13 (D13), on day 17 (D17), on day 20 (D20), on day 24 (D24), and on day 27 (D27), for a total of 900 mg each week administered through two doses of 450 mg each (maintenance dose). • Panel III (weekly dosing): 150 mg of Compound (a) twice a day (BID) for two days: on day 1 (D1) and on day 2 (D2) (loading dose); and then 300 mg once a week (Q7D): on day 3 (D3), day 10 (D10), day 17 (D17), and on day 24 (D24) (maintenance dose). • Panel IV (biweekly dosing): 150 mg of Compound (a) twice a day (BID) for two days: on day 1 (D1) and on day 2 (D2) (loading dose); and then 150 mg Q3D or Q4D: on day 3 (D3), on day 6 (D6), on day 10 (D10), on day 13 (D13), on day 17 (D17), on day 20 (D20), on day 24 (D24), and on day 27 (D27), for a total of 300 mg each week administered through two doses of 150 mg each (maintenance dose).
Oral dosage forms were administered together with approximately 240 mL of non-carbonated water under fed conditions, and were taken within 10 minutes after completion of normal standardized normal fat breakfast in the morning or after completion of normal standardized normal fat dinner in case of evening dosing. Intake of Compound (a) took place at around the same time each day. Intake of Compound (a) marked time 0 hours.
A standardized normal fat meal was served approximately 30 minutes before study drug intake. The standardized normal fat meal contained approximately 21 g of fat, 67 g of carbohydrates, 19 g of proteins resulting in around 533 kcal (an example meal is 4 slices of bread, 2 slices of ham or cheese, butter, jelly, and 1 or 2 cups (up to 355 mL) of decaffeinated coffee or tea with milk and/or sugar). The standardized normal fat meal was ingested entirely within 30 minutes or less. Within 10 minutes after completing the meal, but no more than 30 minutes after the start of the meal, study drug was administered. In case of Compound (a) intake in the evening, timing of standardized dinner was aligned to time of drug intake. […]
For Study Panel 1 only, additional whole blood samples were be collected on Days 1, 24, 25, 26, 38, 45, 51, and 59 using venipuncture. The whole blood samples were be used for the determination of Compound (a) whole blood concentrations and for determination of Compound (a) plasma concentrations. To determine Compound (a) venous whole blood concentrations, an aliquot of the whole blood sample was be pipetted onto the TASSO M-20 for better comparison with capillary whole blood samples collected by TASSO M-20. […]
Separation between metabolites and interfering endogenous compounds was achieved by injecting 2 μL sample extract onto an Acquity UPLC BEH C18 column (50×2.1 mm, 1.7 μm, Waters) at 50° C. and using 10 mM ammonium bicarbonate solution as mobile phase A, and methanol: acetonitrile (50:50, v/v) as mobile phase B. A gradient elution at a flow rate of 0.600 mL/min was applied using the following program: 35% B was increased to 90% B in 3 min, was further increased to 98% B at 3.01 min and held constant up to 4.00 min.
A Triple Quad 6500+ mass spectrometer (Sciex) equipped with a turbo ion spray source was used for analyte detection in positive ion mode using electrospray ionization. […]

[1] = 450 mg, Panel I (450 mg BID Days 1-2, then 900 mg Q7D; SF2a/b, fed), Day 2
[2] = 450 mg, Panel II (450 mg BID Days 1-2, then 450 mg Q3D/Q4D; SF2a/b, fed), Day 27
[3] = Panel I (450 mg BID Days 1-2, then 900 mg Q7D; SF2a/b, fed), Day 24
[4] = Panel II (450 mg BID Days 1-2, then 450 mg Q3D/Q4D; SF2a/b, fed), Day 2
[5] = Panel III (150 mg BID Days 1-2, then 300 mg Q7D; SF2a/b, fed), Day 24
[6] = Panel IV (150 mg BID Days 1-2, then 150 mg Q3D/Q4D; SF2a/b, fed), Day 2

COc1cc(NC(C(=O)c2c[nH]c3ccc(OC(F)(F)F)cc23)c2ccc(Cl)cc2OC)cc(S(C)(=O)=O)c1 (stereo not drawn) [Compound (a)]
Cmax (300 mg, Panel III (150 mg BID Days 1-2, then 300 mg Q7D; SF2a/b, fed), Day 3): 3100 ng/mL
Tmax (300 mg, Panel III (150 mg BID Days 1-2, then 300 mg Q7D; SF2a/b, fed), Day 3, read-out: Median tmax (min-max)): 5 h
AUC (450 mg, Panel I (450 mg BID Days 1-2, then 900 mg Q7D; SF2a/b, fed), Day 1): 17.5 µg·h/mL
Tmax (450 mg, Panel I (450 mg BID Days 1-2, then 900 mg Q7D; SF2a/b, fed), Day 1, read-out: Median tmax (min-max)): 7.5 h
AUC [1]: 46.5 µg·h/mL
Cmax [1]: 5080 ng/mL
Tmax (450 mg, Panel I (450 mg BID Days 1-2, then 900 mg Q7D; SF2a/b, fed), Day 2, read-out: Median tmax (min-max)): 5.5 h
Cmax (450 mg, Panel II (450 mg BID Days 1-2, then 450 mg Q3D/Q4D; SF2a/b, fed), Day 1): 1960 ng/mL
AUC(0-t) (450 mg, Panel II (450 mg BID Days 1-2, then 450 mg Q3D/Q4D; SF2a/b, fed), Day 3, read-out: Mean AUC24 h (SD)): 110 µg·h/mL
AUC(0-t) (450 mg, Panel II (450 mg BID Days 1-2, then 450 mg Q3D/Q4D; SF2a/b, fed), Day 3, read-out: Mean AUC72 h (SD)): 263 µg·h/mL
Cmax (450 mg, Panel II (450 mg BID Days 1-2, then 450 mg Q3D/Q4D; SF2a/b, fed), Day 3): 5950 ng/mL
Tmax (450 mg, Panel II (450 mg BID Days 1-2, then 450 mg Q3D/Q4D; SF2a/b, fed), Day 3, read-out: Median tmax (min-max)): 6.5 h
Cmax (450 mg, Panel II (450 mg BID Days 1-2, then 450 mg Q3D/Q4D; SF2a/b, fed), Day 6): 4380 ng/mL
Cmax (450 mg, Panel II (450 mg BID Days 1-2, then 450 mg Q3D/Q4D; SF2a/b, fed), Day 10): 4080 ng/mL
Cmax (450 mg, Panel II (450 mg BID Days 1-2, then 450 mg Q3D/Q4D; SF2a/b, fed), Day 13): 4070 ng/mL
Cmax (450 mg, Panel II (450 mg BID Days 1-2, then 450 mg Q3D/Q4D; SF2a/b, fed), Day 17): 3940 ng/mL
Cmax (450 mg, Panel II (450 mg BID Days 1-2, then 450 mg Q3D/Q4D; SF2a/b, fed), Day 20): 4060 ng/mL
Cmax (450 mg, Panel II (450 mg BID Days 1-2, then 450 mg Q3D/Q4D; SF2a/b, fed), Day 24): 3920 ng/mL
AUC(0-t) (450 mg, Panel II (450 mg BID Days 1-2, then 450 mg Q3D/Q4D; SF2a/b, fed), Day 27, read-out: Mean AUC24 h (SD)): 74.2 µg·h/mL
AUC(0-t) (450 mg, Panel II (450 mg BID Days 1-2, then 450 mg Q3D/Q4D; SF2a/b, fed), Day 27, read-out: Mean AUC72 h (SD)): 197 µg·h/mL
AUC(0-t) (450 mg, Panel II (450 mg BID Days 1-2, then 450 mg Q3D/Q4D; SF2a/b, fed), Day 27, read-out: Mean AUClast (SD)): 771 µg·h/mL
AUC(0-inf) [2]: 809 µg·h/mL
Cmax [2]: 3980 ng/mL
Tmax (450 mg, Panel II (450 mg BID Days 1-2, then 450 mg Q3D/Q4D; SF2a/b, fed), Day 27, read-out: Median tmax (min-max)): 6 h
AUC(0-t) (900 mg, Panel I (450 mg BID Days 1-2, then 900 mg Q7D; SF2a/b, fed), Day 3, read-out: Mean AUC24 h (SD)): 129 µg·h/mL
AUC(0-t) (900 mg, Panel I (450 mg BID Days 1-2, then 900 mg Q7D; SF2a/b, fed), Day 3, read-out: Mean AUC72 h (SD)): 318 µg·h/mL
Cmax (900 mg, Panel I (450 mg BID Days 1-2, then 900 mg Q7D; SF2a/b, fed), Day 3): 6560 ng/mL
Tmax (900 mg, Panel I (450 mg BID Days 1-2, then 900 mg Q7D; SF2a/b, fed), Day 3, read-out: Median tmax (min-max)): 5 h
Cmax (Panel I (450 mg BID Days 1-2, then 900 mg Q7D; SF2a/b, fed), Day 1): 2020 ng/mL
Cmax (Panel I (450 mg BID Days 1-2, then 900 mg Q7D; SF2a/b, fed), Day 10): 4240 ng/mL
Cmax (Panel I (450 mg BID Days 1-2, then 900 mg Q7D; SF2a/b, fed), Day 17): 4280 ng/mL
AUC(0-t) (Panel I (450 mg BID Days 1-2, then 900 mg Q7D; SF2a/b, fed), Day 24, read-out: Mean AUC24 h (SD)): 79.7 µg·h/mL
AUC(0-t) (Panel I (450 mg BID Days 1-2, then 900 mg Q7D; SF2a/b, fed), Day 24, read-out: Mean AUC72 h (SD)): 195 µg·h/mL
AUC(0-t) (Panel I (450 mg BID Days 1-2, then 900 mg Q7D; SF2a/b, fed), Day 24, read-out: Mean AUClast (SD)): 657 µg·h/mL
AUC(0-inf) [3]: 676 µg·h/mL
Cmax [3]: 4260 ng/mL
Tmax (Panel I (450 mg BID Days 1-2, then 900 mg Q7D; SF2a/b, fed), Day 24, read-out: Median tmax (min-max)): 6 h
AUC (Panel II (450 mg BID Days 1-2, then 450 mg Q3D/Q4D; SF2a/b, fed), Day 1): 15.5 µg·h/mL
Tmax (Panel II (450 mg BID Days 1-2, then 450 mg Q3D/Q4D; SF2a/b, fed), Day 1, read-out: Median tmax (min-max)): 5.5 h
AUC [4]: 44.9 µg·h/mL
Cmax [4]: 4640 ng/mL
Tmax (Panel II (450 mg BID Days 1-2, then 450 mg Q3D/Q4D; SF2a/b, fed), Day 2, read-out: tmax): 5 h
Cmax (Panel III (150 mg BID Days 1-2, then 300 mg Q7D; SF2a/b, fed), Day 1): 741 ng/mL
Cmax (Panel III (150 mg BID Days 1-2, then 300 mg Q7D; SF2a/b, fed), Day 10): 2180 ng/mL
Cmax (Panel III (150 mg BID Days 1-2, then 300 mg Q7D; SF2a/b, fed), Day 17): 2050 ng/mL
AUC(0-t) (Panel III (150 mg BID Days 1-2, then 300 mg Q7D; SF2a/b, fed), Day 24, read-out: Mean AUC24 h (SD)): 37.2 µg·h/mL
AUC(0-t) (Panel III (150 mg BID Days 1-2, then 300 mg Q7D; SF2a/b, fed), Day 24, read-out: Mean AUC72 h (SD)): 92.5 µg·h/mL
AUC(0-t) (Panel III (150 mg BID Days 1-2, then 300 mg Q7D; SF2a/b, fed), Day 24, read-out: Mean AUClast (SD)): 299 µg·h/mL
AUC(0-inf) [5]: 325 µg·h/mL
Cmax [5]: 2130 ng/mL
Tmax (Panel III (150 mg BID Days 1-2, then 300 mg Q7D; SF2a/b, fed), Day 24, read-out: Median tmax (min-max)): 7 h
AUC (Panel IV (150 mg BID Days 1-2, then 150 mg Q3D/Q4D; SF2a/b, fed), Day 1): 5.98 µg·h/mL
Tmax (Panel IV (150 mg BID Days 1-2, then 150 mg Q3D/Q4D; SF2a/b, fed), Day 1, read-out: Median tmax (min-max)): 5 h
AUC [6]: 15.8 µg·h/mL
Cmax [6]: 1600 ng/mL
Tmax (Panel IV (150 mg BID Days 1-2, then 150 mg Q3D/Q4D; SF2a/b, fed), Day 2, read-out: tmax): 5 h
concentration at 72 h (Panel I (450 mg BID Days 1-2, then 900 mg Q7D; SF2a/b, fed), Day 3): 3440 ng/mL
concentration at 72 h (Panel II (450 mg BID Days 1-2, then 450 mg Q3D/Q4D; SF2a/b, fed), Day 3): 2710 ng/mL
concentration at 72 h (Panel III (150 mg BID Days 1-2, then 300 mg Q7D; SF2a/b, fed), Day 3): 1210 ng/mL
concentration at 72 h (Panel IV (150 mg BID Days 1-2, then 150 mg Q3D/Q4D; SF2a/b, fed), Day 3): 865 ng/mL
